Results from PubChem BioAssay AID2252 (Southern Research Specialized Biocontainment Screening …, 2010).

Tested on: THP-1 viability, CellTiter-Glo luminescence, 72 h
Assay: PubChem AID 2252

| SMILES | EC50 [µM] |
| --- | --- |
| Cc1ccc(C(=O)N/C(=C\c2ccc(-c3ccc(Cl)cc3)o2)C(=O)NCCCN(C)C)cc1 | 5.31 |
| O=C(Cc1cccs1)N/N=C\c1ccc([N+](=O)[O-])s1 | 12.5 |
| CCn1cc(C(=O)NCc2ccc3c(c2)OCO3)c(=O)c2cc(F)c(N3CCN(C(=O)c4ccco4)CC3)cc21 | 19.9 |
| CCn1cc(C(=O)O)c(=O)c2cc(F)c(N3CCN(S(=O)(=O)c4ccc(NC(C)=O)cc4)CC3)cc21 | 47.2 |
| COc1cccc(/C=N/NC(=O)C(=O)N2CCCC2)c1O | 40 |
| Oc1cc(Cl)ccc1Oc1ccc(Cl)cc1Cl | 28.6 |
| CN1CCN(C2=Cc3ccccc3Sc3cc(F)ccc32)CC1 | 8.09 |
| O=S1(=O)Nc2c(ccc3cccnc23)-c2ccccc21 | 1.2 |
| O=C(N/N=C/c1cc(O)ccc1Br)c1cccnc1 | 2.86 |
| CCOC(=O)c1cc(-c2ccc(F)cc2)n(CCC(=O)NC2CCN(Cc3ccccc3)CC2)c1C | 18.9 |
| CN1CCN(c2nc(Nc3ccc(F)cc3)nc(Nc3ccc(F)cc3)n2)CC1 | 12.1 |
| Cc1cccc(Nc2cc(C)c3c(O)cccc3n2)c1C | 5.35 |
| O=C(CCc1ccccc1)NNC(=S)NC(=O)c1ccccc1 | 10.9 |
| Clc1ccc2c(c1)C(N1CCNCC1)Cc1ccccc1S2 (stereo unspecified) | 7.4 |
| CC(=O)NC(c1cccc([N+](=O)[O-])c1)c1ccc2cccnc2c1O (stereo unspecified) | 0.47 |
| Cc1[nH]c2ccc(OC(F)(F)F)cc2c1CCNCc1ccc(Cl)cc1 | 4.99 |
| COc1ccc2nc(C)cc(Nc3ccc(N4CCOCC4)cc3)c2c1 | 45.9 |
| O=C(Oc1c(Cl)cc(Cl)c2cccnc12)c1ccco1 | 11.6 |
| Oc1ccc(/C=N/Nc2nccnc2Cl)c(O)c1 | 1.63 |
| Cn1c(CCN2CCN(c3ccccn3)CC2)nc2cc(NC(=O)COc3ccccc3)ccc21 | 22.1 |
| COc1cccc(CNC23CC4CC(CC(C4)C2)C3)c1OCc1ccccc1 | 22.3 |

| SMILES | EC50 [µM] |
| --- | --- |
| O=C(N/N=C/c1cc(Br)cc(Br)c1O)c1ccncc1 | 4.01 |
| Cc1[nH]nc2c1C(c1ccc(-c3ccccc3C#N)o1)C(C#N)=C(N)O2 (stereo unspecified) | 30.6 |
| C#CCOCCOCCOCCNc1nc(N2CCN(C(=O)CCCCCCCCCCNC(=O)[C@H](CCCCN)n3cc(C[C@@H](C)CC)nn3)CC2)nc(N2CCN(C(=O)CCCCCCCCCCNC(=O)[C@H](CCCN=C(N)N)n3cc(C[C@@H](C)CC)nn3)CC2)n1 | 5.23 |
| COc1ccccc1Nc1nc(NCC2CCCO2)c2ccccc2n1 (stereo unspecified) | 14.1 |
| Oc1ccc(C[C@@H]2CNCCN2CCCCC2CCCCC2)cc1 | 8.53 |
| COc1ccc(/C=C/c2cc(-c3ccc(C)cc3)o[n+]2C)cc1 | 1.27 |
| Fc1ccc(CCNCc2ccc(Cl)c(Cl)c2)cc1 | 35.2 |
| COc1cc(CNCCc2ccccc2)cc(Cl)c1OCc1ccccc1 | 16.6 |
| O=C(CN1C2=NCCCN2c2ccccc21)c1ccc([N+](=O)[O-])cc1 | 32.5 |
| O=C(Nc1cccc(Cl)c1)Nc1nccs1 | 33.8 |
| CCc1ccc(CNCc2ccc(OCC(O)CN(C)Cc3ccccc3)cc2)nc1 (stereo unspecified) | 23 |
| CCN1CCN(C2=C(NS(=O)(=O)c3ccc(Br)cc3)C(=O)c3ccccc3C2=O)CC1 | 18.2 |
| Oc1ccc(C[C@H]2CNCCN2CCCCC2CCCCC2)cc1 | 8.99 |
| O=C(CN1C2=NCCCN2c2ccccc21)c1ccc(Br)s1 | 41.9 |
| O=C1c2ccccc2C2=Nc3ccccc3SC(c3ccccc3F)C12 (stereo unspecified) | 13.8 |
| C=C1c2c(Cl)ccc(O)c2C(O)=C2C(=O)[C@]3(O)C(O)=C(C(N)=O)C(=O)[C@@H](N(C)C)[C@@H]3[C@@H](O)C12 (stereo partly specified) | 13.4 |
| CCOc1cc(CNCCCN2CCOCC2)cc(Br)c1OCC(=O)Nc1cccc(C(F)(F)F)c1 | 8.24 |
| CC1(C)N=C(N)NC(Nc2ccc(Br)cc2)=N1 | 7.06 |
| Cn1cc(C(=O)N/N=C/C(Br)=C/c2ccccc2)ccc1=O | 14.5 |
| Oc1ccc(CN2CCCc3ccccc32)c2cccnc12 | 3.33 |
| O=C(c1ccccc1)c1c2c(cc3sc4ccccc4[n+]13)-c1cccc3cccc-2c13 | 1.36 |

| SMILES | EC50 [µM] |
| --- | --- |
| CC(C(=O)NC1C=CS(=O)(=O)C1)N1C(=O)/C(=C/c2ccc(Cl)cc2)SC1=S (stereo unspecified) | 25.7 |
| C=C(C)COc1ccc2c(C)c(CCC(=O)NC3CC3)c(=O)oc2c1 | < 0.1 |
| COc1ccc(CNCCc2cccc(F)c2)c2ccccc12 | 12.9 |
| O=C(NC(=S)NNC(=O)c1cccs1)c1ccco1 | 16.2 |
| Cc1[nH]cnc1C(=O)N/N=C/c1ccc([N+](=O)[O-])s1 | 13.3 |
| CC1CC(C)CN(C(=O)c2ccc(NC(=O)c3ccc(=O)[nH]c3)cc2)C1 (stereo unspecified) | 33 |
| CN(C)CCCNc1cc(C(C)(C)C)nc2c(-c3ccccc3)cnn12 | 6.48 |
| Cc1cc(O)c2c(c1)C(=O)C13C(=C2O)C(=O)[C@H]2[C@@H](O)[C@@H]1[C@H]1[C@H](O)[C@@H]3C(=O)C3=C(O)c4c(O)cc(C)cc4C(=O)C312 (stereo partly specified) | 6.36 |
| Oc1ccc(C=Nc2ccc3ncccc3c2)c(O)c1 | 16.5 |
| CCCCNCCCOc1cccc(Cl)c1Cl | 28.2 |
| COC(=O)c1ccc(CSc2ccc3nnc(-c4ccc(OC)c(OC)c4)n3n2)o1 | 10.3 |
| COC(=O)C(C)NC(=S)N1CCN(c2c(F)cc3c(=O)c(C(=O)O)cn(C4CC4)c3c2OC)CC1C (stereo unspecified) | 36.9 |
| COc1ccc(N2C3=C(CC4=C2CC(C)(C)CC4=O)C(=O)CC(C)(C)C3)cc1 | 7.53 |
| Clc1ccc(C[n+]2cc(-c3ccc(Cl)cc3)n3c2CCC3)cc1 | 22.7 |
| COc1cccc(/C=N/NC(=O)CSCC(=O)Nc2ccccc2)c1O | 5.26 |
| N=c1n(Cc2ccc(Cl)cc2)c2ccccc2n1CC(O)COc1ccccc1 (stereo unspecified) | 5.39 |
| O=[N+]([O-])c1ccc(/C=N/NC(=S)Nc2ccc(Cl)cc2Cl)s1 | 47.5 |
| COc1ccc(Nc2cc(C)c3c(O)cccc3n2)cc1 | 8.86 |
| CCCCCCCCCCOC(=O)Cn1c(COc2ccc(C)cc2)[n+](C)c2ccccc21 | 2.36 |
| NC1=NC[C@@H](Cc2ccc(O)cc2)N1CCCCC1CCCCC1 | 6.98 |
| Cc1ccc2nc(NCc3ccccc3)[nH]c2c1 | 3.85 |

| SMILES | EC50 [µM] |
| --- | --- |
| COc1cc(CNCCO)cc(Cl)c1OCc1ccc(Cl)cc1Cl | 10.8 |
| CC1CC(C)CN(CCOc2ccc(Cl)cc2Cl)C1 (stereo unspecified) | 29.4 |
| COc1cc([N+](=O)[O-])cc(/C=N/NC(=O)c2cccnc2)c1O | 29.7 |
| Cc1ccc(C(=O)NNC(=S)NC(=O)COc2ccccc2)cc1 | 15.1 |
| CC(=O)NC(c1ccc2ccccc2c1)c1ccc2cccnc2c1O (stereo unspecified) | 0.36 |
| O=C1C(=O)c2ccccc2-c2ccccc21 | 2.22 |
| COc1ccc(CNc2ncnc3c2[nH]c2ccccc23)cc1 | 39.3 |
| CCN(CC)CCn1c(NCc2cc(OC)ccc2OC)nc2ccccc21 | 42.7 |
| CCCCn1c(NS(=O)(=O)c2ccccc2)c(C(=O)OCC)c2nc3ccccc3nc21 | 20.1 |
| Cc1ccc(C)c(N/C(N)=N/c2nc(C)cc(C)n2)c1 | 27 |
| CN1CCN(C2=Cc3ccccc3Sc3cc(F)c(F)cc32)CC1 | 14.8 |
| O=[N+]([O-])c1cc(Cl)c2cccnc2c1O | 28.7 |
| Cc1cc(C)c2sc(N(CCCN(C)C)C(=O)COc3ccc(Cl)cc3)nc2c1 | 17.7 |
| O=C1C=C(c2ccc(Cl)cc2)C(=O)N1Nc1ccccc1 | 5.96 |
| O=C(Nc1nnc(-c2cccs2)o1)c1cccc(Oc2ccccc2)c1 | 18.6 |
| O=C(NCc1cccnc1)c1ccc(COc2ccc(Cl)cc2)cc1 | 43.8 |
| CCCCn1c(NCc2ccccc2NS(=O)(=O)c2ccc(C)cc2)nc2ccccc21 | 24.3 |
| OC1CCCN(Cc2ccc3ccc4cccc5ccc2c3c45)C1 (stereo unspecified) | 15.2 |
